Measured values taken from paper PMC4224572, “Peptidomimetic inhibitors of N-myristoyltransferase from human malaria and leishmaniasis parasites” (Organic & Biomolecular Chemistry, 2014).
Square brackets hold non-standard residues; d marks the D form. Peptide text beside a SMILES is read from it. Aun = NCCCCCCCCCCC(=O)O; Aoc = NCCCCCCCC(=O)O

Assays:
PvNMT = target: T1, PvNMT (Plasmodium vivax, UniProt A5K1A2); assay: Fluorogenic NMT inhibition assay, PvNMT; type: biochemical; conditions: recombinant enzyme; mean of duplicate or triplicate experiments
T1 sequence (A5K1A2 1-410): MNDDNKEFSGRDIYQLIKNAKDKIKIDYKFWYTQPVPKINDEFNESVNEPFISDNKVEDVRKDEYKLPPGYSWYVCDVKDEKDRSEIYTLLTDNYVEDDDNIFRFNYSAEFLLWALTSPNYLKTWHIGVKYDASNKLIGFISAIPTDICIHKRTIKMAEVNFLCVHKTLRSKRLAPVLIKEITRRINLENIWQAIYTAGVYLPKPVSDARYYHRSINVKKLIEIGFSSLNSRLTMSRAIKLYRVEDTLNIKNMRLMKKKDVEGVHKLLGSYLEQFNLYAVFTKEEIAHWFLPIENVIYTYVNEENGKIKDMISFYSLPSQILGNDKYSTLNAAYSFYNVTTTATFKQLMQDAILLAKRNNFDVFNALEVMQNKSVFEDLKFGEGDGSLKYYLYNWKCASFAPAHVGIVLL
Description: (§1) 2-Methylimidazolyl analogues were synthesized building on the hypothesis that 2-methylimidazole (pK a ∼ 7.9)[18] is a reasonable mimetic for N-terminal Gly in the peptide substrate (pK a ∼ 8.0).[19] To cover a range of basicity, imidazolyl (pK a ∼ 7.0) and amine analogues (pK a ∼ 10.0) were also synthesized, each exploring a range of chain lengths (n) (Table 1). To probe versatility at the C-terminus, primary amides, carboxylic acids, 2-cyclohexylethyl and 2-(1-cyclohexenyl)ethyl amides were incorporated. Using a previously reported fluorogenic assay,[20] inhibitors were tested against the parasitic enzymes and HsNMT1 in order to explore their selectivity against a relevant host enzyme. […] Further reduction of the chain length (11 and 12, n = 8 and 7, respectively) led to loss of detectable activity against Plasmodium NMTs and significant loss of activity against LdNMT and HsNMT1.

PfNMT = target: T2, PfNMT (Plasmodium falciparum, UniProt Q9U419); assay: Fluorogenic NMT inhibition assay, PfNMT; type: biochemical; conditions: recombinant enzyme; mean of duplicate or triplicate experiments
T2 sequence (Q9U419 1-410): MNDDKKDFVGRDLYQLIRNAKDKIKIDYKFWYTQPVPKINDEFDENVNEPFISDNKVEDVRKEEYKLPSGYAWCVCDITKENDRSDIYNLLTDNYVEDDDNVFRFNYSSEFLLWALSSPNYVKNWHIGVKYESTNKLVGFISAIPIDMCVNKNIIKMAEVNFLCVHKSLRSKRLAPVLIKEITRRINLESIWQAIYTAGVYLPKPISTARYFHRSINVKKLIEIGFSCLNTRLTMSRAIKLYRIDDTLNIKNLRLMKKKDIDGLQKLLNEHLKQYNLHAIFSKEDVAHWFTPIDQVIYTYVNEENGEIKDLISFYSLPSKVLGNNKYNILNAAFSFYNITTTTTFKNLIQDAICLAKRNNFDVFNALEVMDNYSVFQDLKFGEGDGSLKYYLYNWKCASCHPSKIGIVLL
Description: as §1

LdNMT = assay: Fluorogenic NMT inhibition assay, LdNMT; type: biochemical, L. donovani; conditions: for IC50: recombinant enzyme, mean of duplicate or triplicate experiments
Description: as §1

HsNMT1 = target: T3, HsNMT1 (Homo sapiens, UniProt P30419); assay: Fluorogenic NMT inhibition assay, HsNMT1; type: biochemical, H. sapiens; conditions: for IC50: mean of duplicate or triplicate experiments
T3 sequence (P30419 1-496): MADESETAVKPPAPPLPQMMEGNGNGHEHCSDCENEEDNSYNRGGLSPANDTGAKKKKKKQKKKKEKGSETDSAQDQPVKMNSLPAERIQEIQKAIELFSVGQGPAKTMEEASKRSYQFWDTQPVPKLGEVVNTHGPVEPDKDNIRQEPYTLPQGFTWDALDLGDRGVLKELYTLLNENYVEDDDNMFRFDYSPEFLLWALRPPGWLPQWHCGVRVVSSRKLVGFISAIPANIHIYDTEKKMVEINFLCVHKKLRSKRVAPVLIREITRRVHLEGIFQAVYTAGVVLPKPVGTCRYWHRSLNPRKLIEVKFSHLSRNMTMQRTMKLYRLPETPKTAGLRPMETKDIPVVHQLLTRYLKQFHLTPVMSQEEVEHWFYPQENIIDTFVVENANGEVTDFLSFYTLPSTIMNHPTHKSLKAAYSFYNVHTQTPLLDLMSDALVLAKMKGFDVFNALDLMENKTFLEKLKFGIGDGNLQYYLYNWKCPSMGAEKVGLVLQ
Description: 2-Methylimidazolyl analogues were synthesized building on the hypothesis that 2-methylimidazole (pK a ∼ 7.9)[18] is a reasonable mimetic for N-terminal Gly in the peptide substrate (pK a ∼ 8.0).[19] To cover a range of basicity, imidazolyl (pK a ∼ 7.0) and amine analogues (pK a ∼ 10.0) were also synthesized, each exploring a range of chain lengths (n) (Table 1). To probe versatility at the C-terminus, primary amides, carboxylic acids, 2-cyclohexylethyl and 2-(1-cyclohexenyl)ethyl amides were incorporated. Using a previously reported fluorogenic assay,[20] inhibitors were tested against the parasitic enzymes and HsNMT1 in order to explore their selectivity against a relevant host enzyme.

Leishmania NMT = assay: Substrate characteristics in Leishmania NMT; type: biochemical; conditions: for Km: read-out: KM as substrate; for substrate activity: compound 10 tested up to 40 μM
Procedure: Unexpectedly, the electron maps indicated a mixture of ligand structures such that ∼20% of the electron density represents a N-myristoylated 10 product complex with the CoA by-product in LmNMT (Fig. 2D). This is the only structural evidence for a product complex in any N-myristoyltransferase, and captures and supports the proposed mechanism of action of NMT just prior to regeneration of the active enzyme. Kinetic experiments were performed to study 10 both as a potential substrate and as an NMT inhibitor. […] The N-myristoylation of 10 observed above therefore presumably occurs within the crystal where all reagents are present at high effective concentrations, and turnover is blocked by limited egress of products.
To probe the degree to which 10 acts as a true peptidomimetic, we investigated the potential to switch from inhibitor to a peptidomimetic substrate. […] In native NMT substrates, N-terminal Gly is preferred to the exclusion of all other residues, with relatively non-sterically demanding residues such as alanine. […]
[Substrate] (µM) [S b[Substrate] (µM) tt ]
Hs pp60src(2-9) Compound 10 Compound 27 Compound 28
Figure S4: Substrate characteristics of H. sapiens p60src(2-16), compound 10 and modified
inhibitors 27 and 28 in Leishmania NMT.

[1] = hydroxyl substituted for the N-terminal amine

IC50 (PvNMT) [µM]	IC50 (PfNMT) [µM]	IC50 (LdNMT) [µM]	IC50 (HsNMT1) [µM]	loss in activity, Human NMT (HsNMT1; [1]) [folds]	Compound	Vmax as substrate (Leishmania NMT; Leishmania NMT)	Km (Leishmania NMT; Leishmania NMT) [µM]	KM as substrate (Leishmania NMT; Leishmania NMT)	substrate activity (Leishmania NMT)	loss in activity, Leishmania NMT (LdNMT; [1]) [folds]
> 100	> 100	0.63 ± 0.01	7.92 ± 0.83		Cc1nccn1CCCCCCCCCC(=O)N[C@@H](CO)C(=O)N[C@@H](CCCCN)C(=O)NCCC1CCCCC1 [Compound 6]					
> 100	> 100	3.42 ± 0.34	49.9 ± 10.6		Cc1nccn1CCCCCCCCC(=O)N[C@@H](CO)C(=O)N[C@@H](CCCCN)C(=O)NCCC1CCCCC1 [Compound 7]					
> 100	> 100	10.6 ± 1.6	44 ± 7.1		NCCCC[C@H](NC(=O)[C@H](CO)NC(=O)CCCCCCCCCn1ccnc1)C(=O)NCCC1CCCCC1 [Compound 2]					
					GSNKSKPK-NH2 [reference compound]	113616.7 ± 3962.0 RFU.s-1	22.6			
					C[C@H](N)C(=O)NCCCCCCC(=O)N[C@@H](CO)C(=O)N[C@@H](CCCCN)C(=O)NCCC1CCCCC1 [Compound 28]	Not measurable		Not measurable	no detectable substrate activity	
> 100	> 100	27.1 ± 2.6	33.1 ± 2.5		NCCCCCCCCC(=O)N[C@@H](CO)C(=O)N[C@@H](CCCCN)C(N)=O [Compound 23]					
> 100	> 100	13.3 ± 2	5.4 ± 0.41		NCCCCCCCCCCC(=O)N[C@@H](CO)C(=O)N[C@@H](CCCCN)C(N)=O [Compound 21] (H-[Aun]-Ser-Lys-NH2)					
1.04 ± 0.01	> 100	0.14 ± 0.01			NCCCCCCCCCCC(=O)N[C@@H](CO)C(=O)N[C@@H](CCCCN)C(=O)NCCC1CCCCC1 [Compound 9]					
> 100	> 100	16.7 ± 2.5	> 100		NCCCC[C@H](NC(=O)[C@H](CO)NC(=O)CCCCCCCCn1ccnc1)C(=O)NCCC1CCCCC1 [Compound 3]					
> 100	> 100	86.7 ± 10.4	39.2 ± 2		NCCCCCCCCCCC(=O)N[C@@H](CO)C(=O)N[C@@H](CCCCN)C(=O)O [Compound 25] (H-[Aun]-Ser-Lys-OH)					
> 100	> 100	34.8 ± 3.7	> 100		NCCCC[C@H](NC(=O)[C@H](CO)NC(=O)CCCCCCCn1ccnc1)C(=O)NCCC1CCCCC1 [Compound 4]					
> 100	> 100	1.39 ± 0.18	6.75 ± 0.45		NCCCCCCCC(=O)N[C@@H](CO)C(=O)N[C@@H](CCCCN)C(=O)NCCC1CCCCC1 [Compound 12]					
> 100	> 100		> 100		Cc1nccn1CCCCCCCCCC(=O)N[C@@H](CO)C(=O)N[C@@H](CCCCN)C(=O)NCCC1=CCCCC1 [Compound 20]					
> 100	> 100	61.9 ± 4.7	> 100		NCCCCCCCC(=O)N[C@@H](CO)C(=O)N[C@@H](CCCCN)C(N)=O [Compound 24] (H-[Aoc]-Ser-Lys-NH2)					
> 100	> 100	> 100	92.1 ± 17.6		NCCCCCCCCCC(=O)N[C@@H](CO)C(=O)N[C@@H](CCCCN)C(=O)O [Compound 26]					
				1000	NCCCC[C@H](NC(=O)[C@H](CO)NC(=O)CCCCCCCCCO)C(=O)NCCC1CCCCC1 [Compound 46]					> 100
> 100	> 100	25.8 ± 8.2	47.6 ± 3.8		NCCCC[C@H](NC(=O)[C@H](CO)NC(=O)CCCCCCCCCCn1ccnc1)C(=O)NCCC1CCCCC1 [Compound 1]					
> 100	> 100	> 100	21.8 ± 0.8		Cc1nccn1CCCCCCCCCCC(=O)N[C@@H](CO)C(=O)N[C@@H](CCCCN)C(=O)NCCC1CCCCC1 [Compound 5]					
> 100	> 100	1.46 ± 0.22	82.2 ± 14		Cc1nccn1CCCCCCCC(=O)N[C@@H](CO)C(=O)N[C@@H](CCCCN)C(=O)NCCC1CCCCC1 [Compound 8]					
> 100	> 100	> 100	> 100		CC(=O)N[C@@H](CO)C(=O)N[C@@H](CCCCN)C(=O)NCCC1CCCCC1 [Compound 14]					
> 100	> 100	2.01 ± 0.3	7.68 ± 0.86		NCCCCCCCCC(=O)N[C@@H](CO)C(=O)N[C@@H](CCCCN)C(=O)NCCC1CCCCC1 [Compound 11]					
					NCCCC[C@H](NC(=O)[C@H](CO)NC(=O)CCCCCCNC(=O)CN)C(=O)NCCC1CCCCC1 [Compound 27]	6596.4 ± 281.4 RFU.s-1	1.3		substrate	
22.9 ± 3.5	> 100	1.36 ± 0.2	1.36 ± 0.29		NCCCCCCCCCC(=O)N[C@@H](CO)C(=O)N[C@@H](CCCCN)C(N)=O [Compound 22]					

Compound	IC50 (PvNMT) [µM]	IC50 (PfNMT) [µM]	IC50 (LdNMT) [µM]	IC50 (HsNMT1) [µM]	loss in activity, Human NMT (HsNMT1; [1]) [folds]	Vmax as substrate (Leishmania NMT; Leishmania NMT)	Km (Leishmania NMT; Leishmania NMT) [µM]	KM as substrate (Leishmania NMT; Leishmania NMT)	substrate activity (Leishmania NMT)	loss in activity, Leishmania NMT (LdNMT; [1]) [folds]
NCCCC[C@H](NC(=O)[C@H](CO)NC(=O)CCCCCCCCCn1ccnc1)C(=O)NCCC1=CCCCC1 [Compound 18]	> 100	> 100	> 100	> 100						
NCCCCCCCCCC(=O)N[C@@H](CO)C(=O)N[C@@H](CCCCN)C(=O)NCCC1=CCCCC1 [Compound 16]	3.55 ± 0.38	> 100	0.44 ± 0.04	0.67 ± 0.04						
NCCCCCCCCCCC(=O)N[C@@H](CO)C(=O)N[C@@H](CCCCN)C(=O)NCCC1=CCCCC1 [Compound 15]	12.9 ± 1.07	> 100	6.6 ± 1.28	2.3 ± 0.14						
NCCCC[C@H](NC(=O)[C@H](CO)NC(=O)CCCCCCCCCCn1ccnc1)C(=O)NCCC1=CCCCC1 [Compound 17]	> 100	> 100	> 100	> 100						
Cc1nccn1CCCCCCCCCCC(=O)N[C@@H](CO)C(=O)N[C@@H](CCCCN)C(=O)NCCC1=CCCCC1 [Compound 19]	> 100	> 100	> 100	> 100						
